Data taken from ChEMBL document CHEMBL4392883, “Konamycins A and B and Rubromycins CA1 and CA2, Aromatic Polyketides from the Tunicate-Derived Streptomyces hyaluromycini MB-PO13T” (2019).
Values after ≈ are worked out from the molar mass of the structure shown.

Key:
Format in all cases: functional
[1] = tested on: Kluyveromyces marxianus; assay: Antimicrobial activity against Kluyveromyces fragilis ATCC 8635 measured after 20 hrs; conditions: ATCC 8635, 20 h
[2] = tested on: Kocuria rhizophila; assay: Antimicrobial activity against Kocuria rhizophila ATCC 9341 measured after 20 hrs; conditions: DC2201 
[3] = tested on: Bacillus cereus; assay: Antimicrobial activity against Bacillus cereus NBRC 15305 measured after 20 hrs; conditions: NBRC 15305, 20 h
[4] = tested on: Escherichia coli; assay: Antimicrobial activity against Escherichia coli NIH-JC2 measured after 20 hrs; conditions: NIH-JC2, 20 h
[5] = tested on: Mycolicibacterium smegmatis; assay: Antimicrobial activity against Mycobacterium smegmatis NBRC 3207 measured after 20 hrs; conditions: NBRC 3207, 20 h
[6] = tested on: Staphylococcus aureus; assay: Antimicrobial activity against Staphylococcus aureus IFO 12732 measured after 20 hrs; conditions: IFO 12732, 20 h
[7] = tested on: Candida albicans; assay: Antimicrobial activity against Candida albicans NBRC 1594 measured after 20 hrs; conditions: NBRC 1594, 20 h
[8] = tested on: Enterococcus faecalis; assay: Antimicrobial activity against Enterococcus faecalis NBRC 100480 measured after 20 hrs
[9] = Antioxidant activity assessed as DPPH radical scavenging activity
[10] = Antioxidant activity assessed as superoxide dismutase-like activity measured after 20 mins by WST-based assay

Question: Which MIC [1] does the source give for `COC1=CC(=O)c2c(O)c3c(c(O)c2C1=O)O[C@@]1(CCc2cc4cc(C(=O)O)oc(=O)c4c(O)c2O1)[C@H]3O` here?
Answer: > 100 µg/mL

Question: What about the MIC [2] of the same molecule?
Answer: 50 µg/mL (≈ 95.3 µM)

Question: And the MIC [3]?
Answer: 50 µg/mL (≈ 95.3 µM)

Question: What about the MIC [4] of the same molecule?
Answer: > 100 µg/mL

Question: What about the MIC [5] of the same molecule?
Answer: 12.5 µg/mL (≈ 23.8 µM)

Question: And the MIC [6]?
Answer: 0.4 µg/mL (≈ 0.763 µM)

Question: What about the MIC [7] of the same molecule?
Answer: > 100 µg/mL

Question: What about the MIC [8] of the same molecule?
Answer: > 100 µg/mL

Question: With `COC1=CC(=O)c2c(O)c3c(c(O)c2C1=O)O[C@@]1(CCc2cc4cc(C(=O)O)oc(=O)c4c(O)c2O1)C3` as the molecule, how does the MIC [1] read?
Answer: 12.5 µg/mL (≈ 24.6 µM)

Question: And the MIC [2]?
Answer: 12.5 µg/mL (≈ 24.6 µM)

Question: What about the MIC [3] of the same molecule?
Answer: 12.5 µg/mL (≈ 24.6 µM)

Question: What about the MIC [4] of the same molecule?
Answer: > 100 µg/mL

Question: What about the MIC [5] of the same molecule?
Answer: 3.1 µg/mL (≈ 6.1 µM)

Question: What about the MIC [6] of the same molecule?
Answer: 0.2 µg/mL (≈ 0.393 µM)

Question: What about the MIC [7] of the same molecule?
Answer: 6.3 µg/mL (≈ 12.4 µM)

Question: What about the MIC [8] of the same molecule?
Answer: 100 µg/mL (≈ 197 µM)

Question: For `Cc1c(C)c2c(c(C)c1O)CCC(C)(C(=O)O)O2` (stereo not given), which SC50 [9] is on record?
Answer: 9 µM

Question: Which results are given for `CC(=O)O[C@H]1C2=C(C=C3C(=O)c4c(ccc([C@H]5CC[C@H](O)[C@@H](C)O5)c4O)C(O)=C32)C(=O)[C@@](C)(O)[C@@H]1OC(=O)CCC(=O)O`?
Answer: SC50 [10]: 66 µM; SC50 [9]: 21 µM

Question: Which SC50 [10] does the source give for `O=C(O)c1cc(O)c(O)c(O)c1` here?
Answer: 102 µM
